Experimental data: patent US20070128217A1 (priority 2003, published 2007)

Experiments:
[1] = test system: control sera (pooled serum of ten healthy LUMC hospital workers; commercial negative donor pooled serum from the Dutch bloodbank); assay type: binding, human; set-up: Binding of Control serum LUMC to linear peptides / Binding of Control serum Blood-bank to linear peptides / Binding of Control serum LUMC to looped peptides / Binding of Control Serum Blood-Bank to Looped peptides / Binding of Control serum LUMC to linear peptides of the protein M of SARS-CoV Urbani / Binding of Control serum Blood-bank to linear peptides of the protein M of SARS-CoV Urbani / Binding of Control serum LUMC to looped peptides of the protein M of SARS-CoV Urbani / Binding of Control Serum Blood-Bank to Looped peptides of the protein M of SARS-CoV Urbani: unit not given here
[2] = test system: recombinant human anti-SARS-CoV antibody 03-018; assay type: binding; set-up: Binding of antibody 03-018 to linear peptides of the N protein of SARS-CoV Urbani / Binding of antibody 03-018 to looped/cyclic peptides of the N protein of SARS-CoV Urbani: unit not given here
[3] = test system: rabbit serum obtained by immunizing a rabbit with the SARS-CoV strain Frankfurt 1; assay type: binding; set-up: Binding of a rabbit serum to linear peptides / Binding of a rabbit serum to looped peptides / Rabbit serum linear peptides / Rabbit serum looped peptides / Binding of a rabbit serum to linear peptides of protein N of SARS-CoV Urbani (Rabbit serum linear peptides) / Binding of a rabbit serum to looped/cyclic peptides of protein N of SARS-CoV Urbani (Rabbit serum looped peptides): unit not given here
[4] = test system: antibodies in sera from SARS patients (sera 1a, 1b, 2, 6, 37, 62, London, SARS-yellow, SARS-green); assay type: binding, human; set-up: Binding of serum 6 to linear peptides of protein X1 of SARS-CoV Urbani / Binding of serum 37 to linear peptides of protein X1 of SARS-CoV Urbani / Binding of serum 6 to looped/cyclic peptide (PEPSCAN-ELISA) / Binding of serum 37 to looped/cyclic peptide (PEPSCAN-ELISA) / Binding of serum 37 to looped/cyclic peptides of protein X1 of SARS-CoV Urbani / Binding of serum 6 to linear peptides of protein X2 / Binding of serum 37 to linear peptides of protein X2 / Binding of serum 37 to looped/cyclic peptides of protein X2 of SARS-CoV Urbani / Binding of serum 6 to linear peptides of protein M of SARS-CoV Urbani / Binding of serum 37 to linear peptides of protein M of SARS-CoV Urbani / Binding of serum 6 to looped/cyclic peptides of protein M of SARS-CoV Urbani / Binding of serum 37 to looped/cyclic peptides of protein M of SARS-CoV Urbani / Binding of serum 6 to linear peptides of protein X3 of SARS-CoV Urbani / Binding of serum 37 to linear peptides of protein X3 of SARS-CoV Urbani / Binding of serum 37 to looped/cyclic peptides of protein X3 of SARS-CoV Urbani / Binding of serum 6 to linear peptides of protein X4 of SARS-CoV Urbani / Binding of serum 37 to linear peptides of protein X4 of SARS-CoV Urbani / Binding of serum 37 to looped/cyclic peptides of protein X4 of SARS-CoV Urbani / Binding of serum 6 to linear peptides of protein X5 of SARS-CoV Urbani / Binding of serum 37 to linear peptides of protein X5 of SARS-CoV Urbani / Binding of serum 37 to looped/cyclic peptides of protein X5 of SARS-CoV Urbani / Binding of serum 6 to linear peptides of protein N of SARS-CoV Urbani / Binding of serum 37 to linear peptides of protein N of SARS-CoV Urbani / Binding of serum 6 to linear peptide (PEPSCAN-ELISA) / Binding of serum 1a to looped/cyclic peptides of protein N of SARS-CoV Urbani / Binding of serum 1b to looped/cyclic peptides of protein N of SARS-CoV Urbani / Binding of serum 2 to looped/cyclic peptides of protein N of SARS-CoV Urbani / Binding of serum 6 to looped/cyclic peptides of protein N of SARS-CoV Urbani / Binding of serum 37 to looped/cyclic peptides of protein N of SARS-CoV Urbani / Binding of serum 62 to looped/cyclic peptides of protein N of SARS-CoV Urbani / Binding of serum London to looped/cyclic peptides of protein N of SARS-CoV Urbani / Binding of serum SARS-green to looped/cyclic peptides of protein N of SARS-CoV Urbani: unit not given here

Sequence	Binding of Control Serum Blood-Bank to Looped peptides [1]	Binding of Control serum Blood-bank to linear peptides [1]	Binding of Control serum LUMC to linear peptides [1]	Binding of Control serum LUMC to looped peptides [1]	Binding of antibody 03-018 to linear peptides of the N protein of SARS-CoV Urbani [2]	Binding of antibody 03-018 to looped/cyclic peptides of the N protein of SARS-CoV Urbani [2]	Binding of a rabbit serum to linear peptides of protein N of SARS-CoV Urbani (Rabbit serum linear peptides) [3]	Binding of a rabbit serum to looped/cyclic peptides of protein N of SARS-CoV Urbani (Rabbit serum looped peptides) [3]	Binding of serum 1a to looped/cyclic peptides of protein N of SARS-CoV Urbani [4]	Binding of serum 1b to looped/cyclic peptides of protein N of SARS-CoV Urbani [4]	Binding of serum 2 to looped/cyclic peptides of protein N of SARS-CoV Urbani [4]	Binding of serum 6 to looped/cyclic peptides of protein N of SARS-CoV Urbani [4]	Binding of serum 37 to looped/cyclic peptides of protein N of SARS-CoV Urbani [4]	Binding of serum 62 to looped/cyclic peptides of protein N of SARS-CoV Urbani [4]	Binding of serum London to looped/cyclic peptides of protein N of SARS-CoV Urbani [4]	Binding of serum SARS-green to looped/cyclic peptides of protein N of SARS-CoV Urbani [4]	Binding of serum SARS-yellow to looped/cyclic peptides of protein N of SARS-CoV Urbani [4]	Binding of serum 1a to linear peptide (PEPSCAN-ELISA) [4]	Binding of serum 1b to linear peptide (PEPSCAN-ELISA) [4]	Binding of serum 2 to linear peptide (PEPSCAN-ELISA) [4]	also measured
GDGKMKELSPRWYFY	0.7	0.6	0.6	0.8	0.1	0.2	0.2	0.6	0.4	0.3	0.6	0.3	0.7	0.6	0.5	0.5	0.7	–	–	–	Binding of serum 1a to linear peptides of protein N of SARS-CoV Urbani [4]: 0.2; Binding of serum 1b to linear peptides of protein N of SARS-CoV Urbani [4]: 0.1; Binding of serum 2 to linear peptides of protein N of SARS-CoV Urbani [4]: 0.2; Binding of serum 6 to linear peptides of protein N of SARS-CoV Urbani [4]: 0.1; Binding of serum 37 to linear peptides of protein N of SARS-CoV Urbani [4]: 0.5; Binding of serum 62 to linear peptides of protein N of SARS-CoV Urbani [4]: 0.6; Binding of serum London to linear peptides of protein N of SARS-CoV Urbani [4]: 0.4; Binding of serum SARS-green to linear peptides of protein N of SARS-CoV Urbani [4]: 0.3; Binding of serum SARS-yellow to linear peptides of protein N of SARS-CoV Urbani [4]: 0.6
GDQDLIRQGTDYKHW	0.6	0.9	0.8	0.5	0.1	0.2	0.1	0.5	0.4	0.2	0.4	0.3	0.6	0.5	0.4	0.4	0.3	0.2	0.1	0.2	Binding of serum 6 to linear peptide (PEPSCAN-ELISA) [4]: 0.3; Binding of serum 37 to linear peptide (PEPSCAN-ELISA) [4]: 0.6; Binding of serum 62 to linear peptide (PEPSCAN-ELISA) [4]: 0.7; Binding of serum London to linear peptide (PEPSCAN-ELISA) [4]: 0.9; Binding of serum SARS-green to linear peptide (PEPSCAN-ELISA) [4]: 0.5; Binding of serum SARS-yellow to linear peptide (PEPSCAN-ELISA) [4]: 0.7
GETALALLLLDRLNQ	0.7	0.6	0.6	0.7	0.1	0.3	0.2	0.6	0.4	0.2	0.4	0.2	0.7	0.7	0.5	0.3	0.6	0.2	0.1	0.2	Binding of serum 6 to linear peptide (PEPSCAN-ELISA) [4]: 0.1; Binding of serum 37 to linear peptide (PEPSCAN-ELISA) [4]: 0.5; Binding of serum 62 to linear peptide (PEPSCAN-ELISA) [4]: 0.6; Binding of serum London to linear peptide (PEPSCAN-ELISA) [4]: 0.5; Binding of serum SARS-green to linear peptide (PEPSCAN-ELISA) [4]: 0.2; Binding of serum SARS-yellow to linear peptide (PEPSCAN-ELISA) [4]: 0.6
GFYAEGSRGGSQASS	0.5	0.7	0.6	0.5	0.1	0.2	0.1	0.0	0.3	0.2	0.4	0.3	0.3	0.2	0.3	0.3	0.1	0.3	0.1	0.2	Binding of serum 6 to linear peptide (PEPSCAN-ELISA) [4]: 0.4; Binding of serum 37 to linear peptide (PEPSCAN-ELISA) [4]: 0.7; Binding of serum 62 to linear peptide (PEPSCAN-ELISA) [4]: 0.5; Binding of serum London to linear peptide (PEPSCAN-ELISA) [4]: 0.4; Binding of serum SARS-green to linear peptide (PEPSCAN-ELISA) [4]: 0.1; Binding of serum SARS-yellow to linear peptide (PEPSCAN-ELISA) [4]: 0.4
